ChEMBL document CHEMBL3879915, “Methods of inhibiting PRMT5” (2014)

Experiments:
PRMT5/MEP50 complex = PRMT5/MEP50 complex (Homo sapiens, UniProt O14744); test: Inhibition of recombinant human fetal brain FLAG-tagged PRMT5/full length human testis 6His-tagged MEP50 expressed in baculovirus infected insect Sf9 cells using human histone H4 (1 to 15 residues) as substrate preincubated for 30 mins followed by [3H]-SAM addition
[1] = target: Protein arginine N-methyltransferase 5 (Homo sapiens, UniProt O14744); test: Inhibition of PRMT5 in human Z138 cells assessed as decrease in di-methyl arginine levels after 96 hrs by Western blot method; type: cell-based
Protein arginine N-methyltransferase 5, sequence (O14744 whole entry): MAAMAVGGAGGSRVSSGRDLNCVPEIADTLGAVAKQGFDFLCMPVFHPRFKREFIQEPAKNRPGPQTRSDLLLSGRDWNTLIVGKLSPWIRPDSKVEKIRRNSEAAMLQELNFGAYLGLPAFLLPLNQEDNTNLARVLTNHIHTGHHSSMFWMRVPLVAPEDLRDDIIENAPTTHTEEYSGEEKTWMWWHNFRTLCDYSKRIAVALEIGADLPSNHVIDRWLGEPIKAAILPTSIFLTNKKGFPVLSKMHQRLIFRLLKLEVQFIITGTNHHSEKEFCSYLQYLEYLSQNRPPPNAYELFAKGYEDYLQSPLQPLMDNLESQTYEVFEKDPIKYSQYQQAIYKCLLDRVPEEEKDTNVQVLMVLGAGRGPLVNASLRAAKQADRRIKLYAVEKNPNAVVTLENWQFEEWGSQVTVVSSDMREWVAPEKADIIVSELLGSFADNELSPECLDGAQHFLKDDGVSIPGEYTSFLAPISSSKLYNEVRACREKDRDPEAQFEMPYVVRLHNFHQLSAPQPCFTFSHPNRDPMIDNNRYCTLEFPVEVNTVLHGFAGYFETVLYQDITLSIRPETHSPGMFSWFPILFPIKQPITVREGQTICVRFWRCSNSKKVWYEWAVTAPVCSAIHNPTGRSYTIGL

[2] = Antiproliferative activity against human Z138 cells assessed as inhibition of cell viability after 5 days by Cell-Titer Glo assay; type: functional, cell-based; conditions: Z-138, 120 h

PRMT5/MEP50 complex, sequence (O14744 whole entry, the tested form may be a part): as the sequence (O14744 whole entry) above
PRMT5/MEP50 complex, sequence (Q9BQA1 whole entry, further chain, the tested form may be a part): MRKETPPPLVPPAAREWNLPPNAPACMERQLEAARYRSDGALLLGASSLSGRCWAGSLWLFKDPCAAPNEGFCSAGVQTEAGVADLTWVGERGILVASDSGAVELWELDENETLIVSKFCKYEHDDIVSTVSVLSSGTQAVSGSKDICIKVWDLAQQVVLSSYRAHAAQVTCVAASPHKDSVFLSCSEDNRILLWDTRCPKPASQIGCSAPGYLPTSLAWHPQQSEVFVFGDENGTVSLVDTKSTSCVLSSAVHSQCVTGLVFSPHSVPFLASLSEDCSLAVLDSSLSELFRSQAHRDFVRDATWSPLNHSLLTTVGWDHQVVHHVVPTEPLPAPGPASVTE

Row | SMILES | IC50 (PRMT5/MEP50 complex) [nM] | EC50 [1] [nM] | EC50 [2] [nM]
1 | Cn1cnc2ccc(-c3ccnc(NC[C@H](O)CN4CCc5ccccc5C4)c3)cc21 | < 100 | 101 to 1000 | 1000 to 10000
2 | Cn1ncc2cnc(-c3cccc(OCC(O)CN4CCc5ccccc5C4)c3)cc21 (stereo unspecified) | 101 to 1000 | 101 to 1000 | 10000 to 40000
3 | OC(CNc1cc(-c2ccc3ncn(C4COC4)c3c2)ccn1)CN1CCc2ccccc2C1 (stereo unspecified) | < 100 | 101 to 1000 | 1000 to 10000
4 | OC(COc1cccc(-c2ccc3ncn(C4CCNCC4)c3c2)c1)CN1CCc2ccccc2C1 (stereo unspecified) | < 100 | 101 to 1000 | 1000 to 10000
5 | O=C(Cn1ccc2cnc(-c3cccc(OCC(O)CN4CCc5ccccc5C4)c3)nc21)N1CCOCC1 (stereo unspecified) | 101 to 1000 | 101 to 1000 | 10000 to 40000
6 | Cc1ncc2ccc(-c3cccc(OCC(O)CN4CCc5ccccc5C4)c3)cn12 (stereo unspecified) | < 100 | 1000 to 10000 | 1000 to 10000
7 | CN1CCC(n2cnc3ccc(-c4cccc(OCC(O)CN5CCc6ccccc6C5)c4)cc32)C1 (stereo unspecified) | < 100 | 101 to 1000 | 1000 to 10000
8 | O=C(COc1cccc2cccnc12)NC[C@H](O)CN1Cc2ccccc2C1 | < 100 | 101 to 1000 | 1000 to 10000
9 | Cn1cncc1C(=O)Nc1cccc(OC[C@H](O)CN2CCc3ccccc3C2)c1 | 101 to 1000 | 101 to 1000 | 10000 to 40000
10 | CN1CCN(C(=O)Cn2ccc3cnc(-c4ccnc(NCC(O)CN5CCc6ccccc6C5)c4)nc32)CC1 (stereo unspecified) | < 100 | < 100 | 1000 to 10000
11 | CN1CCC(n2cnc3ccc(-c4ccnc(NCC(O)CN5CCc6ccccc6C5)c4)cc32)C1 (stereo unspecified) | < 100 | 101 to 1000 | 1000 to 10000
12 | O[C@H](COc1cccc(-c2cccc3cccnc23)c1)CN1CCc2ccccc2C1 | 101 to 1000 | 1000 to 10000 | > 20000
13 | Cn1cnc2ccc(-c3cc(NCC(O)CN4CCc5ccccc5C4)n[nH]3)cc21 (stereo unspecified) | 101 to 1000 | 101 to 1000 | > 20000
14 | Cn1cnc2cnc(-c3cccc(OCC(O)CN4CCc5ccccc5C4)c3)nc21 (stereo unspecified) | 101 to 1000 | 101 to 1000 | 1000 to 10000
15 | O=C(Cn1cnc2ccc(-c3cccc(OCC(O)CN4CCc5ccccc5C4)c3)cc21)N1CCCCC1 (stereo unspecified) | 101 to 1000 | 101 to 1000 | 10000 to 40000
16 | Cn1cc2ccc(-c3cccc(NCC(O)CN4CCc5ccccc5C4)c3)nc2n1 (stereo unspecified) | < 100 | 101 to 1000 | 10000 to 40000

Row | SMILES | IC50 (PRMT5/MEP50 complex) [nM] | EC50 [1] [nM] | EC50 [2] [nM]
17 | O=C(Cn1ccc2cnc(-c3ccnc(NCC(O)CN4CCc5ccccc5C4)c3)nc21)N1CCCCC1 (stereo unspecified) | < 100 | < 100 | 101 to 1000
18 | OC(CNc1cccc(-c2cccc3[nH]cnc23)c1)CN1CCc2ccccc2C1 (stereo unspecified) | 101 to 1000 | 101 to 1000 | 10000 to 40000
19 | Cn1cnc2ccc(-c3cc(NCC(O)CN4CCc5ccccc5C4)ncn3)cc21 (stereo unspecified) | 101 to 1000 | 101 to 1000 | 1000 to 10000
20 | CN1CCN(C(=O)Cn2ccc3cnc(-c4cccc(OCC(O)CN5CCc6ccccc6C5)c4)nc32)CC1 (stereo unspecified) | 101 to 1000 | 101 to 1000 | 10000 to 40000
21 | CNC(=O)Cn1ccc2cnc(-c3ccnc(NCC(O)CN4CCc5ccccc5C4)c3)nc21 (stereo unspecified) | < 100 | 101 to 1000 | 1000 to 10000
22 | O[C@@H](COc1cccc(-c2cccc3cccnc23)c1)CN1CCc2ccccc2C1 | < 100 | 101 to 1000 | 1000 to 10000
23 | Cn1cc2ccc(-c3cccc(OCC(O)CN4CCc5ccccc5C4)c3)nc2n1 (stereo unspecified) | < 100 | 101 to 1000 | 10000 to 40000
24 | Cn1ncc2ccc(-c3cc(NCC(O)CN4CCc5ccccc5C4)ncn3)cc21 (stereo unspecified) | 101 to 1000 | 101 to 1000 | > 20000
25 | Cn1cnc2ccc(-c3ccnc(NCC(O)CN4CCc5ccccc5C4)c3)nc21 (stereo unspecified) | < 100 | < 100 | 1000 to 10000
26 | CC(C)Oc1ccc(F)c(-c2cccc(OCC(O)CN3CCc4ccccc4C3)c2)c1 (stereo unspecified) | 101 to 1000 | 1000 to 10000 | > 20000
27 | OC(CNc1cc(-c2ccc3ncn(C4CCNC4)c3c2)ccn1)CN1CCc2ccccc2C1 (stereo unspecified) | < 100 | 101 to 1000 | 1000 to 10000
28 | OC(COc1cccc(-c2ccc3ncn(C4CNC4)c3c2)c1)CN1CCc2ccccc2C1 (stereo unspecified) | 101 to 1000 | 1000 to 10000 | 1000 to 10000
29 | Cn1ccc2ccc(-c3cc(NCC(O)CN4CCc5ccccc5C4)ncn3)cc21 (stereo unspecified) | 101 to 1000 | 101 to 1000 | 10000 to 40000
30 | CC(=O)N1CCC(n2ccc3cnc(-c4ccnc(NCC(O)CN5CCc6ccccc6C5)c4)nc32)CC1 (stereo unspecified) | < 100 | < 100 | 101 to 1000
31 | Cn1cnc2c1CN(c1cccc(OCC(O)CN3CCc4ccccc4C3)c1)CC2 (stereo unspecified) | 101 to 1000 | 1000 to 10000 | > 20000
32 | CNC(=O)Cn1cnc2ccc(-c3cccc(OCC(O)CN4CCc5ccccc5C4)c3)cc21 (stereo unspecified) | 101 to 1000 | 1000 to 10000 | 1000 to 10000
